#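 Values below derive from 48-hour exposures of cells grown in 96-well plates, with endpoints linearly interpolated between the two concentrations bracketing the appropriate inhibition level. GI50 marks 50% less growth. At the TGI there is no net growth.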
# Key:
# Assay in all cases: NCI-60 cell line screen, 48 h
# 786-0 renal = tested on: 786-0 renal
# A498 renal = tested on: A498 renal
# A549 NSCLC = tested on: A549 NSCLC
# ACHN renal = tested on: ACHN renal
# BT-549 breast = tested on: BT-549 breast
# CAKI-1 renal = tested on: CAKI-1 renal
# CCRF-CEM leukemia = tested on: CCRF-CEM leukemia
# COLO 205 colon = tested on: COLO 205 colon
# DU-145 prostate = tested on: DU-145 prostate
# EKVX NSCLC = tested on: EKVX NSCLC
# HCC-2998 colon = tested on: HCC-2998 colon
# HCT-116 colon = tested on: HCT-116 colon
# HCT-15 colon = tested on: HCT-15 colon
# HL-60(TB) leukemia = tested on: HL-60(TB) leukemia
# HOP-62 NSCLC = tested on: HOP-62 NSCLC
# HOP-92 NSCLC = tested on: HOP-92 NSCLC
# HS 578T breast = tested on: HS 578T breast
# HT29 colon = tested on: HT29 colon
# IGROV1 ovarian = tested on: IGROV1 ovarian
# K-562 leukemia = tested on: K-562 leukemia
# KM12 colon = tested on: KM12 colon
# LOX IMVI melanoma = tested on: LOX IMVI melanoma
# M14 melanoma = tested on: M14 melanoma
# MALME-3M melanoma = tested on: MALME-3M melanoma
# MCF7 breast = tested on: MCF7 breast
# MDA-MB-231 breast = tested on: MDA-MB-231 breast
# MDA-MB-435 = tested on: MDA-MB-435
# MDA-MB-468 breast = tested on: MDA-MB-468 breast
# MOLT-4 leukemia = tested on: MOLT-4 leukemia
# NCI-H226 lung = tested on: NCI-H226 lung
# NCI-H23 lung = tested on: NCI-H23 lung
# NCI-H460 lung = tested on: NCI-H460 lung
# NCI-H522 lung = tested on: NCI-H522 lung
# NCI/ADR-RES ovarian = tested on: NCI/ADR-RES ovarian
# OVCAR-3 ovarian = tested on: OVCAR-3 ovarian
# OVCAR-4 ovarian = tested on: OVCAR-4 ovarian
# OVCAR-5 ovarian = tested on: OVCAR-5 ovarian
# OVCAR-8 ovarian = tested on: OVCAR-8 ovarian
# PC-3 prostate = tested on: PC-3 prostate
# RPMI-8226 leukemia = tested on: RPMI-8226 leukemia
# RXF 393 renal = tested on: RXF 393 renal
# SF-268 CNS = tested on: SF-268 CNS
# SF-295 CNS = tested on: SF-295 CNS
# SF-539 CNS = tested on: SF-539 CNS
# SK-MEL-2 melanoma = tested on: SK-MEL-2 melanoma
# SK-MEL-28 melanoma = tested on: SK-MEL-28 melanoma
# SK-MEL-5 melanoma = tested on: SK-MEL-5 melanoma
# SK-OV-3 ovarian = tested on: SK-OV-3 ovarian
# SN12C renal = tested on: SN12C renal
# SNB-19 CNS = tested on: SNB-19 CNS
# SNB-75 CNS = tested on: SNB-75 CNS
# SR leukemia = tested on: SR leukemia
# SW-620 colon = tested on: SW-620 colon
# T-47D breast = tested on: T-47D breast
# TK-10 renal = tested on: TK-10 renal
# U251 CNS = tested on: U251 CNS
# UACC-257 melanoma = tested on: UACC-257 melanoma
# UACC-62 melanoma = tested on: UACC-62 melanoma
# UO-31 renal = tested on: UO-31 renal
smiles,measurement,setting,value
COc1ccc(CCN2C(=O)/C(=C/c3csc(C#N)n3)SC2=S)cc1OC,GI50,786-0 renal,5.56 µM
same,TGI,786-0 renal,18.9 µM
same,GI50,A498 renal,18.6 µM
same,TGI,A498 renal,68 µM
same,GI50,A549 NSCLC,35 µM
same,TGI,A549 NSCLC,> 100 µM
same,GI50,ACHN renal,13.4 µM
same,TGI,ACHN renal,31.4 µM
same,GI50,BT-549 breast,11.4 µM
same,TGI,BT-549 breast,24.2 µM
same,GI50,CAKI-1 renal,16.5 µM
same,TGI,CAKI-1 renal,33.3 µM
same,GI50,CCRF-CEM leukemia,3.38 µM
same,TGI,CCRF-CEM leukemia,11.4 µM
same,GI50,COLO 205 colon,21.6 µM
same,TGI,COLO 205 colon,87.5 µM
same,GI50,DU-145 prostate,2.96 µM
same,TGI,DU-145 prostate,10.5 µM
same,GI50,EKVX NSCLC,22.2 µM
same,TGI,EKVX NSCLC,60 µM
same,GI50,HCC-2998 colon,15.3 µM
same,TGI,HCC-2998 colon,29.9 µM
same,GI50,HCT-116 colon,4.55 µM
same,TGI,HCT-116 colon,16.9 µM
same,GI50,HCT-15 colon,5.3 µM
same,TGI,HCT-15 colon,20.9 µM
same,GI50,HL-60(TB) leukemia,14.6 µM
same,TGI,HL-60(TB) leukemia,40.1 µM
same,GI50,HOP-62 NSCLC,22 µM
same,TGI,HOP-62 NSCLC,69.6 µM
same,GI50,HOP-92 NSCLC,2.12 µM
same,TGI,HOP-92 NSCLC,8.56 µM
same,GI50,HS 578T breast,19.8 µM
same,TGI,HS 578T breast,72.9 µM
same,GI50,HT29 colon,13.5 µM
same,TGI,HT29 colon,27.6 µM
same,GI50,IGROV1 ovarian,18.2 µM
same,TGI,IGROV1 ovarian,41.7 µM
same,GI50,K-562 leukemia,2.97 µM
same,TGI,K-562 leukemia,15.5 µM
same,GI50,KM12 colon,3.71 µM
same,TGI,KM12 colon,15.2 µM
same,GI50,LOX IMVI melanoma,2.9 µM
same,TGI,LOX IMVI melanoma,10.6 µM
same,GI50,M14 melanoma,13.8 µM
same,TGI,M14 melanoma,49.1 µM
same,GI50,MALME-3M melanoma,11.9 µM
same,TGI,MALME-3M melanoma,29.7 µM
same,GI50,MCF7 breast,3.3 µM
same,TGI,MCF7 breast,15.7 µM
same,GI50,MDA-MB-231 breast,12 µM
same,TGI,MDA-MB-231 breast,28.8 µM
same,GI50,MDA-MB-435,13.6 µM
same,TGI,MDA-MB-435,29.3 µM
same,GI50,MDA-MB-468 breast,2.67 µM
same,TGI,MDA-MB-468 breast,14.9 µM
same,GI50,MOLT-4 leukemia,3.94 µM
same,TGI,MOLT-4 leukemia,25.4 µM
same,GI50,NCI-H226 lung,15.8 µM
same,TGI,NCI-H226 lung,41.5 µM
same,GI50,NCI-H23 lung,14.6 µM
same,TGI,NCI-H23 lung,28 µM
same,GI50,NCI-H460 lung,17.4 µM
same,TGI,NCI-H460 lung,38.7 µM
same,GI50,NCI-H522 lung,2.68 µM
same,TGI,NCI-H522 lung,13.5 µM
same,GI50,NCI/ADR-RES ovarian,16.3 µM
same,TGI,NCI/ADR-RES ovarian,35.7 µM
same,GI50,OVCAR-3 ovarian,4.99 µM
same,TGI,OVCAR-3 ovarian,18 µM
same,GI50,OVCAR-4 ovarian,11.4 µM
same,TGI,OVCAR-4 ovarian,32.9 µM
same,GI50,OVCAR-5 ovarian,21.2 µM
same,TGI,OVCAR-5 ovarian,69.5 µM
same,GI50,OVCAR-8 ovarian,15.4 µM
same,TGI,OVCAR-8 ovarian,30.5 µM
same,GI50,PC-3 prostate,15.6 µM
same,TGI,PC-3 prostate,37.9 µM
same,GI50,RPMI-8226 leukemia,3.03 µM
same,TGI,RPMI-8226 leukemia,19.9 µM
same,GI50,RXF 393 renal,3.56 µM
same,TGI,RXF 393 renal,12.6 µM
same,GI50,SF-268 CNS,12.2 µM
same,TGI,SF-268 CNS,27 µM
same,GI50,SF-295 CNS,83.8 µM
same,TGI,SF-295 CNS,> 100 µM
same,GI50,SF-539 CNS,12.5 µM
same,TGI,SF-539 CNS,25 µM
same,GI50,SK-MEL-2 melanoma,13.3 µM
same,TGI,SK-MEL-2 melanoma,28.6 µM
same,GI50,SK-MEL-28 melanoma,12.1 µM
same,TGI,SK-MEL-28 melanoma,25.3 µM
same,GI50,SK-MEL-5 melanoma,13.6 µM
same,TGI,SK-MEL-5 melanoma,28.8 µM
same,GI50,SK-OV-3 ovarian,66.8 µM
same,TGI,SK-OV-3 ovarian,> 100 µM
same,GI50,SN12C renal,11.9 µM
same,TGI,SN12C renal,26.4 µM
same,GI50,SNB-19 CNS,20.7 µM
same,TGI,SNB-19 CNS,54 µM
same,GI50,SNB-75 CNS,22.6 µM
same,TGI,SNB-75 CNS,> 100 µM
same,GI50,SR leukemia,2.46 µM
same,TGI,SR leukemia,8.72 µM
same,GI50,SW-620 colon,3.15 µM
same,TGI,SW-620 colon,11.7 µM
same,GI50,T-47D breast,3.22 µM
same,TGI,T-47D breast,20.6 µM
same,GI50,TK-10 renal,3.13 µM
same,TGI,TK-10 renal,10.3 µM
same,GI50,U251 CNS,14.8 µM
same,TGI,U251 CNS,29.9 µM
same,GI50,UACC-257 melanoma,11 µM
same,TGI,UACC-257 melanoma,34 µM
same,GI50,UACC-62 melanoma,11.5 µM
same,TGI,UACC-62 melanoma,23.9 µM
same,GI50,UO-31 renal,5.08 µM
same,TGI,UO-31 renal,23.9 µM

# — PubChem BioAssay (NCI)
